Data on six molecules can be found in PubChem BioAssay (NCI).

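All cell lines were grown in 96-well plates and treated with compound for 48 hours. GI50 marks 50% less growth. TGI: concentration producing complete growth inhibition.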

Test systems include HCC-2998 colon; HL-60(TB) leukemia; HOP-62 NSCLC; HS 578T breast; OVCAR-4 ovarian; OVCAR-8 ovarian; SK-MEL-2 melanoma; SK-MEL-5 melanoma; SNB-75 CNS; T-47D breast.
Common to all, as to assay: DTP human tumour cell line panel, 48 h

In general, TGI refers to the concentration giving total growth inhibition. For `Cn1c(=O)sc2cc(C(=S)N3CCOCC3)ccc21`, the TGI in the experiment with HCC-2998 colon, with HL-60(TB) leukemia, in the experiment on HOP-62 NSCLC, in the experiment with HS 578T breast, with OVCAR-4 ovarian and in the experiment with OVCAR-8 ovarian was above 100 µM each time. The TGI is above 100 µM with SK-MEL-2 melanoma, above 100 µM with SK-MEL-5 melanoma, above 95.3 µM in the experiment with SNB-75 CNS and above 100 µM in the experiment on T-47D breast.
In general, GI50 refers to the concentration giving 50% growth inhibition. As for `Oc1[nH]c2ccccc2c1/C=c1/cc2c(c(-c3ccc(C(F)(F)F)cc3)n1)=Nc1ccccc1-2`, the GI50 was 9.32 µM in the experiment on HCC-2998 colon; 3.41 µM in the experiment with HL-60(TB) leukemia; 12.3 µM in the experiment on HOP-62 NSCLC; 10.3 µM in the experiment with HS 578T breast; 2.75 µM with OVCAR-4 ovarian; 4.99 µM in the experiment on OVCAR-8 ovarian. The GI50 with SK-MEL-2 melanoma is 8.66 µM; with SK-MEL-5 melanoma it was 5.28 µM; in the experiment with SNB-75 CNS, 1.45 µM; with T-47D breast, 3.05 µM. Further, the TGI in the experiment on HCC-2998 colon was 24.4 µM; with HL-60(TB) leukemia, 9.25 µM; in the experiment with HOP-62 NSCLC, 27.3 µM; in the experiment on HS 578T breast, 69.9 µM; in the experiment with OVCAR-4 ovarian, 13.6 µM; with OVCAR-8 ovarian, 28.1 µM. Moreover, the TGI in the experiment on SK-MEL-2 melanoma was 28.7 µM; in the experiment on SK-MEL-5 melanoma it was 19.3 µM; in the experiment on SNB-75 CNS it was 20.7 µM; in the experiment with T-47D breast, 13.9 µM.
In the case of `CCCCCCOP(=O)(OCCCCCC)OC(C(=O)OC)C(F)(F)F` (stereo not given), the TGI in the experiment with HCC-2998 colon, in the experiment with HL-60(TB) leukemia, in the experiment with HOP-62 NSCLC, with HS 578T breast, with OVCAR-4 ovarian and in the experiment with OVCAR-8 ovarian was above 100 µM throughout. Further, the TGI in the experiment on SK-MEL-2 melanoma, in the experiment on SK-MEL-5 melanoma, in the experiment with SNB-75 CNS and in the experiment on T-47D breast was above 100 µM throughout.
On to `Cc1ccc(/C=C2\CN(C)CC3C2=NC(=S)NC3c2ccc(C)cc2)cc1` (stereo not given), for which the TGI with HCC-2998 colon is 33.4 µM; with HL-60(TB) leukemia it was above 100 µM; in the experiment on HOP-62 NSCLC, above 100 µM; in the experiment with HS 578T breast, above 100 µM; with OVCAR-4 ovarian, above 100 µM; with OVCAR-8 ovarian it was above 100 µM. Moreover, the TGI with SK-MEL-2 melanoma is above 100 µM; with SK-MEL-5 melanoma, above 100 µM; in the experiment on SNB-75 CNS, above 100 µM; in the experiment with T-47D breast it was 96.9 µM.
For the molecule `COC(=O)C(C(=O)C(=O)NC1Nc2ccc(C)cc2S1)c1nc2ccc(Cl)cc2[nH]c1=O` (stereo not given), the TGI in the experiment with HCC-2998 colon, in the experiment with HL-60(TB) leukemia, with HOP-62 NSCLC, in the experiment on HS 578T breast, in the experiment with OVCAR-4 ovarian and in the experiment with OVCAR-8 ovarian was above 100 µM throughout. Moreover, the TGI in the experiment on SK-MEL-2 melanoma, with SK-MEL-5 melanoma, in the experiment on SNB-75 CNS and in the experiment with T-47D breast was above 100 µM in each case.
Consider `CCCNC(=O)CCC(C)[C@H]1CCC2C3C(C[C@H](OC(C)=O)[C@@]21C)[C@@]1(C)CCC2(C[C@H]1C[C@H]3OC(C)=O)OOC1(CCCCC1)OO2` (stereo not given in full), for which the TGI was above 43.3 µM with HCC-2998 colon; 3.94 µM with HL-60(TB) leukemia; 1.34 µM with HOP-62 NSCLC; above 53 µM in the experiment on HS 578T breast; 26.6 µM in the experiment with OVCAR-4 ovarian; 4.3 µM with OVCAR-8 ovarian. For the same molecule, the TGI in the experiment on SK-MEL-2 melanoma was determined as 7.05 µM; in the experiment with SK-MEL-5 melanoma it was 5.71 µM; in the experiment on SNB-75 CNS it was 6.86 µM; in the experiment on T-47D breast, 6.44 µM.
